Assay results published in patent publication US20050214367A1, “Processes for making coated phytochemicals and tocopherols and products formed therefrom” (priority 2004, published 2005).

Key:
[1] = Screen (mesh) particle size analysis; assay type: physicochemical; settings: uncoated feed powder
[2] = uncoated feed powder
[3] = uncoated feed powder; remark: listed apart in the source

mean particle size [1]: about 200 mesh
loose bulk density [2]: 0.38 g/cc
moisture content [3]: 0.06 % by weight
Structure (SMILES): Cc1c(C)c2c(c(C)c1OC(=O)CCC(=O)O)CC[C@@](C)(CCC[C@H](C)CCC[C@H](C)CCCC(C)C)O2 [succinate (vitamin E), tocopherol succinate]
